In paper PMC7766155, “Improved Stability and Activity of a Marine Peptide-N6NH2 against Edwardsiella tarda and Its Preliminary Application in Fish” (Marine Drugs, 2020):
Values joined by “and” are separate entries in the source; they are usually repeats but may differ in a detail not shown here. Identical values can stand only once. Like-named read-outs stand apart in the source and are kept apart here. Where a SMILES comes first, the peptide text is derived from it. Bridges are numbered along the chain shown (N, C = ends).

What was measured:
[1] = system: E. coli CVCCO157; conditions: broth microdilution, MHB, 1 × 10^5 CFU/mL, 37 °C 18–24 h, n = 3; some N6 data from ref 19
[2] = system: S. hyicus 15095
[3] = system: E. tarda; test: Time-kill curves; assay type: cell-based, Edwardsiella tarda; conditions: 10^5 CFU/mL, 28 °C, 200 rpm, plate count every 2 h
Description: Time–kill curves for N6 and N6NH2 were determined against E. tarda. In brief, the mid-log phase bacterial cells (10^5 CFU/mL) were mixed with different concentrations of peptides (1 × and 2 × and 4 × MIC) and cultured at 28 °C (200 rpm). Samples of 100 μL were taken from the mixture at intervals of 2 h, continuously diluted, and counted on the plate.

[4] = system: E. tarda genomic DNA; test: Gel migration (DNA binding) assay; set-up: species or system Edwardsiella tarda; conditions: 0.25 μg DNA, 10 min at room temperature, 0.7% agarose gel; mass ratios 0–10 tested
Description: (§1) The genomic DNA of E. tarda or O. niloticus was incubated for 10 min at room temperature with different concentrations of N6 and N6NH2 in binding buffer (5% glycerol, 10 mM Tris-HCl, pH 8.0, 20 mM KCl, 1 mM EDTA, 1 mM dithiothreitol and […] BSA). The mass ratios of peptides and DNA were 0, 0.5, 1, 2, 4, 6, 8, and 10, respectively. The migration of DNA was evaluated by electrophoresis on a 0.7% agarose gel.

[5] = system: E. tarda cells; test: TEM ultrastructure; assay type: cell-based, Edwardsiella tarda; conditions: 4 × MIC for 2 h, 1 × 10^8 CFU/mL
Description: Mid-log phase E. tarda cells (1 × 10^8 CFU/mL) were incubated with 4 × MIC N6 or N6NH2 for 2 h at 37 °C. The bacterial cells were then centrifuged, washed three times with 0.1 M PBS (pH 7.2) and fixed overnight at 4 °C with 2.5% glutaraldehyde. After washing twice with PBS, the cells were post-fixed with 1% osmium tetroxide (OsO4) for 2 h, dehydrated in a graded ethanol series (from 50% to 100%) for 15 min each time and dried by CO2. The cell samples were sputtered with gold-palladium and observed on a QUANTA200 electron microscopy (FEI, Philips, The Netherlands).
The bacterial cells were treated with peptides as described above, fixed with 2.5% glutaraldehyde at 4 °C overnight and post-fixed with 1% OsO4 for 1 h. After washing three times with PBS, the cells were dehydrated with a graded acetone series (50%, 70%, 85%, 95% and 100%, for 7 min each time) and immersed in mixtures of acetone and resin (3:1, 1:1 and 1:3, 40 min each time). The samples were infiltrated with a pure epoxy resin overnight, embedded in capsules containing embedding medium and polymerized at 45 °C for 3 h and at 65 °C for 24 h, respectively. Thin sections were cut using an ultramicrotome, stained with 1% uranyl acetate and examined by a JEM1400 (JEDL, Tokyo, Japan).

[6] = system: Salmonella typhimurium CVCC533
[7] = system: Staphylococcus aureus ATCC43300
[8] = system: S. pullorum CVCC1802
[9] = system: Escherichia coli, S. typhimurium, S. enteritidis and S. pullorum; test: organism not typed; assay type: cell-based
Description: All tests were conducted in triplicate.

[10] = system: S. hyicus 437-2
[11] = system: E. tarda genomic DNA; test: Competitive binding of genomic DNA with ethidium bromide; set-up: species or system Edwardsiella tarda; conditions: peptide 160 μg/mL added to DNA (10 μg)-EB; 30 min at 37 °C
Description: E. tarda genomic DNA was dissolved in TE buffer to a concentration of 100 μg/mL; 1.5 μL of EB (100 μg/mL) solution was mixed with 100 μL of DNA solution and then added into 96-well plates. The DNA-EB mixture was incubated in the dark at 37 °C for 10 min. Varying concentrations of peptides (0, 40, 80, and 160 μg/mL, 100 μL) were then added to the DNA-EB solution (100 μL), and the fluorescence spectra were measured for each test solution after 30 min of incubation at 37 °C in the dark. Infinite M200 PRO was used for sample determination at 535 nm, and the spectra were recorded from 550 to 750 nm.
To determine the competitive binding of EB against peptides with bacterial DNA, 100 μL of DNA (50 μg/mL) solution was mixed with 100 μL of peptide solution (80 μg/mL) and incubated at 37 °C for 10 min. Then aliquots of stock solution of EB (0, 25, 50, and 100 μg/mL, 1.5 μL) were added to the fixed DNA-peptide solution and incubated for 30 min at 37 °C in the dark. The fluorescence spectra were measured as described above.

[12] = system: Aeromonas veronii
[13] = system: S. pullorum CVCC1789
[14] = system: E. coli CVCC1515
[15] = system: fish genome DNA; test: Gel migration (DNA binding) assay; conditions: O. niloticus genomic DNA, Supplementary Figure S2
Description: as §1

[16] = system: S. enteritidis CVCC3377
[17] = system: Pseudomonas aeruginosa CICC21630
[18] = system: inner membrane of E. tarda; test: Inner membrane penetration, PI staining, flow cytometry; assay type: cell-based, Edwardsiella tarda
Description: After washing twice with PBS, the cells were incubated with PI (50 μg/mL) for 15 min and analyzed using a FACS Calibur Flow Cytometer (BD, San Jose, CA, USA).

[19] = broth microdilution, MHB, 1 × 10^5 CFU/mL, 37 °C 18–24 h, n = 3, some N6 data from ref 19

CC(C)[C@@H]1NC(=O)CNC(=O)[C@H](CC(N)=O)NC(=O)[C@H](CCCNC(=N)N)NC(=O)[C@H](Cc2ccc(O)cc2)NC(=O)[C@H](C(C)C)NC(=O)[C@@H](NC(=O)[C@@H](NC(=O)[C@H](CC(N)=O)NC(=O)[C@H](Cc2c[nH]c3ccccc23)NC(=O)[C@H](C)NC(=O)[C@H](Cc2ccccc2)NC(=O)CN)C(C)C)CSSC[C@@H](C(=O)N[C@@H](Cc2c[nH]cn2)C(=O)N[C@@H](CCCNC(=N)N)C(=O)N[C@@H](CCCNC(=N)N)C(=O)N[C@@H](C)C(=O)N[C@@H](CC(N)=O)C(=O)O)NC(=O)[C@H](C(C)C)NC(=O)[C@H](CCCNC(=N)N)NC1=O [Peptide N6] (H-GFAWNVCVYRNGVRVCHRRAN-OH; disulfide 7-16; N-terminus assumed)
MIC [1]: 0.5 μg/mL and 0.2 μM
MIC [2]: 6.46 µM
MIC [2, 19]: 16 µg/mL
time at which bacteria were killed (time-kill curve) ([3]; 2 × MIC): ≤ 2 h
time at which bacteria were killed (time-kill curve) ([3]; 4 × MIC): ≤ 2 h
mass ratio of peptide and DNA at which migration of E. tarda genome DNA is inhibited [4]: greater than 1
abnormal cells (TEM) [5]: over 95%
MIC [6, 19]: 1 µg/mL
MIC ([6]; murium CVCC533): 0.4 µM
MIC ([7]; ATCC43300): 6.46 µM
MIC [7, 19]: 16 µg/mL
MIC ([8]; CVCC1802): 0.2 µM
MIC [8, 19]: 0.5 µg/mL
MIC [9]: 0.25 to 4 µg/mL
MIC [10]: 25.8 µM
MIC [10, 19]: 64 µg/mL
competition with EB for binding to E. tarda genomic DNA (quenching of DNA-EB fluorescence) [11]: the binding affinity of N6 was stronger than that of N6NH2
MIC [12]: 2.58 µM
MIC [12, 19]: 6.4 µg/mL
MIC ([13]; CVCC1789): 0.2 µM
MIC [13, 19]: 0.5 µg/mL
MIC ([14]; CVCC1515): 0.4 µM
MIC [14, 19]: 1 µg/mL
mass ratio at which migration of fish genome DNA is prevented [15]: 2
MIC ([16]; CVCC3377): 0.1 µM
MIC [16, 19]: 0.25 µg/mL
MIC ([17]; CICC21630): 1.6 µM
MIC [17, 19]: 4 µg/mL
percentage of E. tarda stained with PI ([18]; 4 × MIC, 120 min, 1 × 10^8 CFU/mL, PI 50 μg/mL, flow cytometry): 77.7%
percentage of E. tarda stained with PI ([18]; within 30 min, 1×, 2× and 4× MIC): less than 5%
